Data reported in patent US11015179B2, “Peptide having anti-viral effect and composition containing same” (priority 2015, dated 2021).

Assays:
[1] = system: INFγ; assay: INFγ activity of immune cells (FACS) in whole HBV W4P genome-transgenic mice; type: in vivo; conditions: 8 weeks; PEP1 50 μg/kg, 3TC 500 μg/kg; HBsAg stimulation 72 hours
Experimental: INF, which is a hormone-like cytokine, is secreted from immune cells against a virus. INFs are present in three types such as α, β and γ, and among these, INFγ is known to be critical for inhibiting the hepatitis B virus (HBV) in humans. Therefore, to observe the activity of INFγ, as an immune response, by the PEP1 peptide, 8 weeks after 50 μg/kg of the PEP1 peptide and 500 μg/kg of 3TC were injected into the caudal vein of each of transgenic mice prepared by injection of the whole HBV W4P variant genome twice a week, the whole blood was collected and a kidney was extracted from the mouse, and then immune cells were isolated and treated with HBsAg for stimulation. Seventy two hours after the stimulation, the INFγ cytokine was accumulated in cells by Brefeldin A and stained by an intracellular staining method for FACS analysis.

[2] = system: HBV; assay: Virion production (real-time PCR of HBV DNA) in W4P-transfected HepG2 cell line; type: cell-based, hepatitis B virus
Experimental: (§1) To observe the potential for virion proliferation of whole HBV containing W4P, virion DNA was extracted from the entire supernatant while the medium was changed every 24 hours by the above-described method, and subjected to real-time quantitative PCR using a Quantitech SYBR Green Master-Mix kit (Qiagen). The entire supernatant was centrifuged using an ultracentrifuge equipped with an SW28 swing rotor at 20,000 rpm for 2 hours to precipitate the virus, and the precipitated viral pellets were suspended with 200 μl of sterilized DW. […] Real-time PCR was performed at 40 cycles of 5 min at 95° C., 15 sec at 94° C., and 15 sec at 60° C. using the Exicycler™ 96 Real-Time Quantitative Thermal Block System (Bioneer Co., Korea), and the temperature was increased from 53° C. to 90° C. by modulating to 0 sec at 95° C., 30 sec at 53° C. and modulating by 0.1° C. per second to analyze a melting curve.
To observe the virion production in the supernatant after the inhibition of HBsAg secretion by the PEP1 peptide was observed, virions were collected from the supernatant obtained by the above-described method using PEG 6000, and HBV DNA was obtained using a virus DNA prep kit (Intron, Korea), and then quantified by real-time PCR. […]

[3] = system: IL-6; assay: IL-6 ELISA in culture supernatant of W4P-transfected Huh7 cell line; type: cell-based, human; conditions: Huh7, 10 μM, 48 hours
Experimental: It has been reported that HBV preS1 W4P variants are closely related to production of IL-6, which is an inflammation regulatory cytokine. Therefore, to observe an anti-inflammatory effect of PEP1 in IL-6-induced cell lines, 48 hours after the whole HBV W4P genome was injected into HepG2 and Huh7 cell lines which were then treated with 10 μM PEP1 and 10 μM 3TC, respectively, IL-6 levels in the culture supernatants were observed through ELISA.

[4] = system: HBV; type: in vivo, mice; conditions: caudal vein twice a week; PEP1 50 μg/kg, 3TC 500 μg/kg
Experimental: HBV transgenic mice were prepared by injecting a 1.1-fold HBV base sequence comprising a full open reading frame (ORF) into the fertilized eggs of the mice through microinjection. The base sequence of HBV used in the research was obtained using a pHY92-W4P plasmid. The pHY92-W4P plasmid was digested with EcoRi before injection into the fertilized eggs of the mice, and finally a base sequence of 3.9 kb in length was used for microinjection. Produced subjects were selected through PCR using a specific sequence of HBsAg. PCR-positive subjects were selected according to the concentrations of serum HBsAg and HBeAg, and finally used as PCR-positive, HBsAg-positive, and HBeAg-positive mice in the study. These mice were backcrossed with C57BL/6 mice to produce heterologous HBV transgenic mice.
HBsAg levels in the HBV-transgenic mice were determined using an HBsAg ELISA kit (BIOKIT, Germany). To quantify HBV titers, total DNA was extracted and confirmed by real-time PCR.
In addition, HBV virion DNA was obtained from mouse serum and subjected to real-time PCR.

[5] = system: HBV; assay: HBsAg ELISA in whole HBV W4P genome-transfected HepG2 cell line; type: cell-based, hepatitis B virus; conditions: 48 hours
[6] = system: HBV; assay: Virion production (real-time PCR of HBV DNA) in W4P-transfected Huh7 cell line; type: cell-based, hepatitis B virus; conditions: Huh7, 10 μM, 48 hours
Experimental: as §1
To observe the virion production in the supernatant after the inhibition of HBsAg secretion by the PEP1 peptide was observed, virions were collected from the supernatant obtained by the above-described method using PEG 6000, and HBV DNA was obtained using a virus DNA prep kit (Intron, Korea), and then quantified by real-time PCR.

[7] = system: HSP 90, SOD, ERK, JAK2; assay: Liver protein expression (western blotting) in whole HBV W4P genome-transgenic mice; type: in vivo; conditions: week 8; PEP1 50 μg/kg, 3TC 500 μg/kg
Experimental: To observe a change in protein expression affecting the antiviral effect by the PEP1 peptide, transgenic mice prepared by injecting the whole HBV W4P variant genome were used. The PEP1 peptide was injected into the caudal vein of the mouse at a concentration of 50 μg/kg twice a week. As a control group, 500 μg/kg of 3TC was injected like the PEP1 peptide. On week 8, the whole blood was collected from the mouse, and proteins were extracted from the liver of the mouse and subjected to western blotting to observe expression of the proteins.

[8] = system: immune cells; assay: Distribution of immune cells (FACS) in whole HBV W4P genome-transgenic mice; type: in vivo; conditions: 3TC
Experimental: PEP1 is an HLA Class II-binding peptide derived from telomerase, and a 16-amino acid peptide triggering cytotoxic T-cell and helper T-cell immune responses. Therefore, to observe a change in the distribution of renal immune cells by the PEP1 peptide, transgenic mice were prepared by injecting the whole HBV W4P variant genome, on week 4, the whole blood was collected from the mice, and immune cells were isolated from the kidneys of the mice and then stained with lymphocyte markers (B cells (CD19B), CD4, CD8, NK1.1 cells) and myeloid cell markers (DC (CD11c), a macrophage marker (F4/80), a neutrophil marker (Ly-6G), a monocyte marker (Gr1)) according to an extracellular cell surface staining method for FACS analysis.

[9] = system: macrophages; assay: Differentiation of macrophages (FACS) in whole HBV W4P genome-transgenic mice; type: in vivo; conditions: eight weeks; PEP1 50 μg/kg, 3TC 500 μg/kg; vs PBS
Experimental: Therefore, to observe if the PEP1 peptide is able to differentiate macrophages to M1, eight weeks after PBS, 50 μg/kg of the PEP1 peptide and 500 μg/kg of 3TC were injected into the caudal vein of each of transgenic mice prepared by injecting the whole HBV W4P variant genome twice a week, the whole blood was collected from the mouse and a kidney of the mouse was extracted, immune cells were isolated and stained with a macrophage marker (F4/80) and M1 marker MHCII through an extracellular cell surface staining method. Afterward, FACS analysis was carried out.

[10] = system: HBV; assay: Antiviral effect with HSP90 blockage in whole HBV wild-type genome-transfected HepG2 cell line (real-time quantitative PCR); type: cell-based, hepatitis B virus; conditions: HepG2, ETV 30 nM, 24 hours
Experimental: PEP1 has been known to pass through a cell membrane from the outside to the inside of the cells in a shuttle method via HSP90. To confirm if the antiviral effect is reduced in cells by blocking the HSP90 activity based on such a mechanism, in this research, a HepG2 cell line was transiently transfected with the whole HBV wild-type genome, treated with anti-GAPDH, anti-HSP (1 ug/ml, blockage of HSP90 activity) and 17-AAG (1 μM) for 1 hour, ant then with PBS (0.5%), entecavir (ETV, 30 nM) and PEP1 (5 μM) for 24 hours. Subsequently, the supernatant was collected and treated with PEG6000 to precipitate the virus, and viral DNA was extracted and subjected to real-time quantitative PCR to observe an antiviral effect. All experiments are independently performed in triplicate, and a statistical significance test was performed using one-way ANOVA through the Tukey's Multiple Comparison Test. ** p<0.05 versus PBS, and ## p<0.05 versus None.

Compound | INFγ activity of CD4, CD8 and NK1.1 cells [1] | Virions produced in the supernatant ([2]; HepG2, 10 μM, 48 hours) | Virion synthesis according to concentration ([2]; HepG2, 3TC) | IL-6 level in culture supernatant [3] | Level of HBsAg in serum, reduction effect on week 8 [4] | Level of HBsAg in serum, up to 4 weeks [4] | Serum virion level, inhibitory effect on week 8 [4] | Serum virion level, week 4 [4] | HBsAg inhibitory effect vs control group ([5]; 3TC 10 μM, cell line not specified (Huh7, Huh7.5, HepG2 tested)) | HBsAg in both pellets and supernatants ([5]; HepG2, 3TC 0.01-100 μM) | Virions produced in the supernatant [6] | JAK2 phosphorylation in liver [7] | Protein phosphorylation of ERK in liver [7] | Distribution of immune cells [8] | Distribution of macrophages among myeloid-derived cells [9] | Number of cells differentiated to M1 [9] | Antiviral effect in untreated cells or cells treated with GAPDH, HSP90 or 17-AAG [10]
Nc1ccn([C@@H]2CS[C@H](CO)O2)c(=O)n1 [3TC, ramivudine] | slightly increased activity | inhibitory effect | has an inhibitory effect on virion synthesis according to concentration | no effect on production of IL-6 cytokine | no such effect | neither the PEP1 peptide nor 3TC showed a reduction effect | approximately 52% | did not show virion inhibitory effects | exhibited higher inhibitory effects than the control group | showed inhibitory effects according to concentration | inhibitory effect | inhibited phosphorylation | inhibited phosphorylation | did not have an influence on the distribution of immune cells | did not show a difference | did not show a difference | –
C=C1[C@H](CO)[C@@H](O)C[C@@H]1n1cnc2c(=O)[nH]c(N)nc21 [ETV, entecavir] | – | – | – | – | – | – | – | – | – | – | – | – | – | – | – | – | no difference in the antiviral effect
